According to patent US20090281049A1, “New use of ginsenoside compound-k in manufacturing medicaments” (priority 2006, published 2009):

Columns and labels:
[1] = tested on: Collagen Type II (CII) induced arthritis in rats; experiment: Treatment effect on Collagen Type II (CII) induced arthritis in rats; type: in vivo, Rat, SD strain
Description: Inflammation-induced agent: Collagen Type II was dissolved in 0.1 mol/L acetic acid to make final concentration be 2 mg/ml collagen solution, and held in 4° C. overnight. The Collagen Type II solution was added to cold Freund's Adjuvant Incomplete by drops (Collagen Type II: Freund's Adjuvant Incomplete=1:1) on the next day, emulsified completely (Type II Collagen solution: Freund's Adjuvant Incomplete=1:1), and the final concentration of Collagen Type II was 1 mg/ml. The Collagen Type II emulsion was reserved in a refrigerator at 4° C.
Immune method: Each rat was immunized by being injected subcutaneously at 5 points on the back with 0.1 ml emulsion in each point, total of […] (contained 0.5 mg Collagen Type II), and immunized again in the same way 7 days later. An emulsion of 0.1 mol/L acetic acid and Freund's Adjuvant Incomplete was injected in control group. The swell values of the arthrosis in right hind ankle and foot were measured respectively by using a hydroplethismometer before injection and 20 days after immunization.
Collagen Type II (CII) and Freund's Adjuvant Incomplete were ground into emulsion and were injected subcutaneously into the back of the rats for immunization. Until the 19th day, most parts of the pedal joint of the rats began to swell. Picked 40 rats out which were with swelled pedal joint and divided them into […] subsequently, i.e. 8 rats in each group. They are respectively […]: Ginsenoside Compound-K, 10 mg/kg, iv, medium dose group: Ginsenoside Compound-K, 5 mg/kg, iv, small dose group: Ginsenoside Compound-K, 2.5 mg/kg, iv, Enbrel group: 9 mg/kg, sc, Tripterygium Wilfordii Hook group: 1.5 mg/kg, po. and blank control group: physiological saline 10 mg/kg, iv. The rats were administered for 8 days consecutively. The swell value of the foot was measured respectively by using hydroplethismometer before inflammation induced and at different time after the onset of symptoms, then calculated swell rate and prohibition rate, and compared the differences among groups with t test.

[2] = tested on: carrageenan-induced acute inflammation in rats; experiment: Carrageenan-induced paw edema in rats; type: in vivo, Rat, SD strain
Description: Animals were firstly divided into large dose group: 10 mg/kg, iv, medium dose group: 5 mg/kg, iv, small dose group: 2.5 mg/kg, iv, an Indomethacin group: 1 mg/kg, po and a blank control group: physiological saline 10 mg/kg, iv. The animals were administered by the foregoing method for 3 days. The volume of the right hind paw of the rats was measured using hydroplethismometer before inflammation induced. 1 hour after the last administration, 0.1 ml 1% carrageenan was injected into the plantar surface of the right hind paw in order to induce inflammation. The volume of the right hind paw of the rats was measured by hydroplethismometer every other hour thereafter respectively. Swell rate and inhibition rate were calculated by the same method as above. Differences among groups were compared with t test.

In the case of `CC(C)=CCC[C@](C)(O[C@@H]1O[C@H](CO)[C@@H](O)[C@H](O)[C@H]1O)[C@H]1CC[C@]2(C)[C@@H]1[C@H](O)C[C@@H]1[C@@]3(C)CC[C@H](O)C(C)(C)[C@@H]3CC[C@]12C` [Ginsenoside Compound-K, ginsenoside Compound-K], the swell value ([1]; 2.5 mg/kg iv, 0 day) is reported as 1.03 ± 0.05 mL, the inhibition rate ([1]; 2.5 mg/kg iv, 20 day) is reported as <18.95> % and the swell rate ([1]; 2.5 mg/kg iv, 20 day) is reported as “(43.79 ± 12.08%”. The swell value ([1]; 2.5 mg/kg iv, 20 day) was 1.48 ± 0.11 mL, the inhibition rate ([1]; 2.5 mg/kg iv, 22 day) was <19.94> % and the swell rate ([1]; 2.5 mg/kg iv, 22 day) was “(48.22 ± 10.27) %”. For the same molecule, the swell value ([1]; 2.5 mg/kg iv, 22 day) was 1.53 ± 0.06 mL, the inhibition rate ([1]; 2.5 mg/kg iv, 23 day) was <17.70> % and the swell rate ([1]; 2.5 mg/kg iv, 23 day) was “(51.23 ± 9.82) %”. For the same molecule, the swell value ([1]; 2.5 mg/kg iv, 23 day) was 1.56 ± 0.06 mL, the inhibition rate ([1]; 2.5 mg/kg iv, 25 day) was <16.26> % and the swell rate ([1]; 2.5 mg/kg iv, 25 day) was “(51.66 ± 18.36) %”. For the same molecule, the swell value ([1]; 2.5 mg/kg iv, 25 day) was 1.56 ± 0.16 mL, the inhibition rate ([1]; 2.5 mg/kg iv, 28 day) was <20.52> % and the swell rate ([1]; 2.5 mg/kg iv, 28 day) was “(41.04 ± 10.92) %”. For the same molecule, the swell value ([1]; 2.5 mg/kg iv, 28 day) was 1.45 ± 0.10 mL, the inhibition rate ([1]; 2.5 mg/kg iv, 31 day) was <22.73> % and the swell rate ([1]; 2.5 mg/kg iv, 31 day) was “(37.86 ± 11.18) %”. The swell value ([1]; 2.5 mg/kg iv, 31 day) was 1.42 ± 0.10 mL, the swell value ([1]; 5 mg/kg iv, 0 day) was 1.03 ± 0.05 mL and the inhibition rate ([1]; 5 mg/kg iv, 20 day) was <9.35> %. For the same molecule, the swell rate ([1]; 5 mg/kg iv, 20 day) was “(48.97 ± 27.82%”, the swell value ([1]; 5 mg/kg iv, 20 day) was 1.52 ± 0.21 mL and the inhibition rate ([1]; 5 mg/kg iv, 22 day) was <12.39> %. For the same molecule, the swell rate ([1]; 5 mg/kg iv, 22 day) was “(52.77 ± 21.55) %”, the swell value ([1]; 5 mg/kg iv, 22 day) was 1.56 ± 0.15 mL and the inhibition rate ([1]; 5 mg/kg iv, 23 day) was <13.87> %. For the same molecule, the swell rate ([1]; 5 mg/kg iv, 23 day) was “(53.62 ± 14.27) %”, the swell value ([1]; 5 mg/kg iv, 23 day) was 1.58 ± 0.13 mL and the inhibition rate ([1]; 5 mg/kg iv, 25 day) was <15.62> %. For the same molecule, the swell rate ([1]; 5 mg/kg iv, 25 day) was “(52.06 ± 18.56) %”, the swell value ([1]; 5 mg/kg iv, 25 day) was 1.56 ± 0.19 mL and the inhibition rate ([1]; 5 mg/kg iv, 28 day) was <13.17> %. The swell rate ([1]; 5 mg/kg iv, 28 day) was “(44.84 ± 25.91) %”, the swell value ([1]; 5 mg/kg iv, 28 day) was 1.49 ± 0.28 mL and the inhibition rate ([1]; 5 mg/kg iv, 31 day) was <15.64> %. For the same molecule, the swell rate ([1]; 5 mg/kg iv, 31 day) was “(41.34 ± 13.83) %”, the swell value ([1]; 5 mg/kg iv, 31 day) was 1.45 ± 0.13 mL and the swell value ([1]; 10 mg/kg iv, 0 day) was 1.04 ± 0.19 mL. For the same molecule, the inhibition rate ([1]; 10 mg/kg iv, 20 day) was <12.61> %, the swell rate ([1]; 10 mg/kg iv, 20 day) was “(47.22 ± 18.60) %” and the swell value ([1]; 10 mg/kg iv, 20 day) was under 1.52 ± 0.19 mL. For the same molecule, the inhibition rate ([1]; 10 mg/kg iv, 22 day) was <16.28> %, the swell rate ([1]; 10 mg/kg iv, 22 day) was “(50.43 ± 9.45) %” and the swell value ([1]; 10 mg/kg iv, 22 day) was 1.54 ± 0.12 mL. The inhibition rate ([1]; 10 mg/kg iv, 23 day) was <19.28> %, the swell rate ([1]; 10 mg/kg iv, 23 day) was “(50.25 ± 22.06) %” and the swell value ([1]; 10 mg/kg iv, 23 day) was 1.54 ± 0.10 mL. The inhibition rate ([1]; 10 mg/kg iv, 25 day) was <17.95> %, the swell rate ([1]; 10 mg/kg iv, 25 day) was “(50.62 ± 21.43) %” and the swell value ([1]; 10 mg/kg iv, 25 day) was 1.54 ± 0.12 mL. The inhibition rate ([1]; 10 mg/kg iv, 28 day) was <22.09> %, the swell rate ([1]; 10 mg/kg iv, 28 day) was “(40.23 ± 16.26) %” and the swell value ([1]; 10 mg/kg iv, 28 day) was 1.44 ± 0.13 mL. For the same molecule, the inhibition rate ([1]; 10 mg/kg iv, 31 day) was <27.67> %, the swell rate ([1]; 10 mg/kg iv, 31 day) was “(35.44 ± 22.50) %” and the swell value ([1]; 10 mg/kg iv, 31 day) was 1.38 ± 0.11 mL. For the same molecule, the “overall treatment effect on Collagen Type II induced arthritis” value ([1]; rats, 10, 5, 2.5 mg/kg iv for 8 days) was “able to cure Collagen Type II induced arthritis”, the swell value ([2]; 2.5 mg/kg iv, 0 h) was 1.33 ± 0.08 mL and the inhibition rate ([2]; 2.5 mg/kg iv, 1 h) was <13.97> %. The swell rate ([2]; 2.5 mg/kg iv, 1 h) was “(20.22 ± 9.99) %”, the swell value ([2]; 2.5 mg/kg iv, 1 h) was 1.59 ± 0.08 mL and the inhibition rate ([2]; 2.5 mg/kg iv, 2 h) was <8.80> %. The swell rate ([2]; 2.5 mg/kg iv, 2 h) was “(29.40 ± 12.71) %”, the swell value ([2]; 2.5 mg/kg iv, 2 h) was 1.71 ± 0.13 mL and the inhibition rate ([2]; 2.5 mg/kg iv, 3 h) was <16.54> %. For the same molecule, the swell rate ([2]; 2.5 mg/kg iv, 3 h) was “(34.80 ± 14.01) %”, the swell value ([2]; 2.5 mg/kg iv, 3 h) was 1.79 ± 0.14 mL and the inhibition rate ([2]; 2.5 mg/kg iv, 4 h) was <24.08> %. The swell rate ([2]; 2.5 mg/kg iv, 4 h) was “(29.49 ± 13.86) %”, the swell value ([2]; 2.5 mg/kg iv, 4 h) was 1.71 ± 0.12 mL and the inhibition rate ([2]; 2.5 mg/kg iv, 5 h) was <15.78> %. The swell rate ([2]; 2.5 mg/kg iv, 5 h) was “(31.22 ± 14.12) %”, the swell value ([2]; 2.5 mg/kg iv, 5 h) was 1.74 ± 0.12 mL and the swell value ([2]; 5 mg/kg iv, 0 h) was 1.39 ± 0.12 mL. For the same molecule, the inhibition rate ([2]; 5 mg/kg iv, 1 h) was <49.51> %, the swell rate ([2]; 5 mg/kg iv, 1 h) was “(11.87 ± 6.23) %” and the swell value ([2]; 5 mg/kg iv, 1 h) was 1.55 ± 0.11 mL. The inhibition rate ([2]; 5 mg/kg iv, 2 h) was <42.44> %, the swell rate ([2]; 5 mg/kg iv, 2 h) was “(18.56 ± 9.77) %” and the swell value ([2]; 5 mg/kg iv, 2 h) was 1.64 ± 0.09 mL. For the same molecule, the inhibition rate ([2]; 5 mg/kg iv, 3 h) was <32.62> %, the swell rate ([2]; 5 mg/kg iv, 3 h) was “(28.09 ± 11.34) %” and the swell value ([2]; 5 mg/kg iv, 3 h) was 1.77 ± 0.12 mL. The inhibition rate ([2]; 5 mg/kg iv, 4 h) was <48.22> %, the swell rate ([2]; 5 mg/kg iv, 4 h) was “(20.11 ± 11.20) %” and the swell value ([2]; 5 mg/kg iv, 4 h) was 1.66 ± 0.13 mL. For the same molecule, the inhibition rate ([2]; 5 mg/kg iv, 5 h) was <53.80> %, the swell rate ([2]; 5 mg/kg iv, 5 h) was “(17.13 ± 10.13) %” and the swell value ([2]; 5 mg/kg iv, 5 h) was 1.62 ± 0.11 mL. For the same molecule, the swell value ([2]; 10 mg/kg iv, 0 h) was 1.42 ± 0.10 mL, the inhibition rate ([2]; 10 mg/kg iv, 1 h) was <72.87> % and the swell rate ([2]; 10 mg/kg iv, 1 h) was “(6.38 ± 7.44) %”. For the same molecule, the swell value ([2]; 10 mg/kg iv, 1 h) was 1.51 ± 0.10 mL, the inhibition rate ([2]; 10 mg/kg iv, 2 h) was <56.96> % and the swell rate ([2]; 10 mg/kg iv, 2 h) was “(13.87 ± 8.55) %”. The swell value ([2]; 10 mg/kg iv, 2 h) was 1.62 ± 0.11 mL, the inhibition rate ([2]; 10 mg/kg iv, 3 h) was <61.49> % and the swell rate ([2]; 10 mg/kg iv, 3 h) was “(16.06 ± 12.41) %”. The swell value ([2]; 10 mg/kg iv, 3 h) was 1.65 ± 0.16 mL, the inhibition rate ([2]; 10 mg/kg iv, 4 h) was <70.38> % and the swell rate ([2]; 10 mg/kg iv, 4 h) was “(11.51 ± 9.76) %”. For the same molecule, the swell value ([2]; 10 mg/kg iv, 4 h) was 1.58 ± 0.14 mL, the inhibition rate ([2]; 10 mg/kg iv, 5 h) was <78.23> % and the swell rate ([2]; 10 mg/kg iv, 5 h) was “(8.07 ± 10.88) %”. The swell value ([2]; 10 mg/kg iv, 5 h) was 1.53 ± 0.12 mL and the “overall effect on carrageenan-induced acute inflammation” value ([2]; rats, 10, 5, 2.5 mg/kg iv) was “able to inhibit carrageenan-induced acute inflammation in rats obviously”.
